# According to paper PMC6154719 (Molecules : A Journal of Synthetic Chemistry and Natural …, 2017):
# Legend:
# Type in all cases: in vitro ADME
# CYP3A4/5 [1] = experiment: CYP3A4/5 midazolam 1′-hydroxylation in human liver microsomes (HPLC); conditions: substrate midazolam, n = 2
# Experimental: (§1) Enzyme activities were assayed in human and rat liver cytosolic and microsomal fractions. The enzyme assays (each performed in 4–8 replicates) were repeated three times (HPLC measurement of CYP activities was repeated only twice, Table 3). Inhibition studies were carried out by incubation of specific substrates in the presence of sesquiterpenes (in the range 0–100 µM).
# (§2) Enzyme activities of individual CYP forms were measured according to established protocols. The following microsomal CYP activities were tested: CYP2A6, coumarin 7-hydroxylation; CYP2B6, 7-ethoxy-4-(trifluoromethyl)coumarin 7-deethylation, CYP2C9, diclofenac 4′-hydroxylation, CYP2C19 assay, S-mephenytoin 4′-hydroxylation, CYP2D6 on bufuralol 1′-hydroxylation, CYP2E1, chlorzoxazone 6-hydroxylation and CYP3A4, testosterone 6β-hydroxylation, and midazolam 1′-hydroxylation. Activities were measured using the Prominence HPLC system (Shimadzu, Kyoto, Japan), equipped with a LiChroCART 250-4 LiChrospher 100 RP-18 column or Chromolith®HighResolution RP-18 end-capped column (Merck, Darmstadt, Germany) and UV or fluorescence detection, according to the cited literature. […] CYP1A2, 7-ethoxyresorufin O-deethylation, and CYP3A4/2B6 (human), CYP2B1 (rat), benzyloxyresorufin O-debenzylation were measured using the microplate reader Tecan Infinite M200 (Tecan Group; Mannedorf, Switzerland). […]
# CYP3A4/5 [2] = experiment: CYP3A4/5 testosterone 6β-hydroxylation in human liver microsomes (HPLC); conditions: substrate testosterone, n = 2
# Experimental: as §1
# (§3) Enzyme activities of individual CYP forms were measured according to established protocols. The following microsomal CYP activities were tested: CYP2A6, coumarin 7-hydroxylation; CYP2B6, 7-ethoxy-4-(trifluoromethyl)coumarin 7-deethylation, CYP2C9, diclofenac 4′-hydroxylation, CYP2C19 assay, S-mephenytoin 4′-hydroxylation, CYP2D6 on bufuralol 1′-hydroxylation, CYP2E1, chlorzoxazone 6-hydroxylation and CYP3A4, testosterone 6β-hydroxylation, and midazolam 1′-hydroxylation. Activities were measured using the Prominence HPLC system (Shimadzu, Kyoto, Japan), equipped with a LiChroCART 250-4 LiChrospher 100 RP-18 column or Chromolith®HighResolution RP-18 end-capped column (Merck, Darmstadt, Germany) and UV or fluorescence detection, according to the cited literature. Further incubation details are described either in the corresponding references, as well as in the papers from this laboratory e.g., [42, 43, 44]. CYP1A2, 7-ethoxyresorufin O-deethylation, and CYP3A4/2B6 (human), CYP2B1 (rat), benzyloxyresorufin O-debenzylation were measured using the microplate reader Tecan Infinite M200 (Tecan Group; Mannedorf, Switzerland).
# (§4) The concentration of sesquiterpenes required for 50% inhibition of enzyme activity, the IC50 value, was determined. Their final concentrations in the reaction mixture were proposed to cover the entire inhibitory range of these compounds (1–100 µM). The IC50 values for each sesquiterpene were determined by plotting sigmoidal dose response curves of specific enzyme activity vs. logarithm of sesquiterpene concentration using GraphPad Prism version 6.07 for Windows (GraphPad Software Inc., La Jolla, CA, USA).
# CYP2A6 = biological target: T1, CYP2A6 (Homo sapiens, UniProt P11509); experiment: CYP2A6 coumarin 7-hydroxylation in human liver microsomes (HPLC); conditions: substrate coumarin, n = 2
# T1 construct: other CYP-mediated activities in human liver microsomes; from tissue; host or cells: human liver microsomal fraction
# Experimental: as §1, §2
# [3] = test system: CYP2B/3A (CYP2B1, BROD activity); experiment: CYP2B/3A (BROD activity, benzyloxyresorufin O-debenzylation) in rat liver microsomes; conditions: probe benzyloxyresorufin (O-debenzylation), 0.5-5.0 µM; rat liver microsomes, BROD activity
# Experimental: as §1, §3
# (§5) Sesquiterpenes CNER, TNER and FAR, non-volatile liquids, were pipetted, and proper concentration was calculated according to density. All compounds were dissolved in DMSO. The final solvent concentration in the inhibition assays was 1%, which had no effect on the enzyme activity (data not shown). Non-enzymatic interference of sesquiterpenes with some compounds in the reaction mixtures (e.g., fluorescence enhancing or quenching) was considered and excluded. All experiments were performed in three replicates, if not stated otherwise.
# (§6) CNER, TNER and FAR at a fixed concentration of 100 µM were screened for inhibition of cytosolic AKR1A1, AKR1C, CBR1, NQO1, SULT, and GST, and microsomal CYPs and UGT. The degree of inhibition caused by sesquiterpenes was compared with non-inhibited control reactions, which contained solvent without sesquiterpenes.
# as §4
# (§7) The kinetic inactivation study of the CYP1A2 (EROD activity) and CYP2B/3A (BROD activity), both in rat and human, with TNER, was performed to find out the mechanism of enzyme inhibition by this sesquiterpene. Mechanism of EROD and BROD inhibition was tested at the final ethoxyresorufin or benzyloxyresorufin concentrations 0.5–5.0 µM. The concentration of TNER was 5.0 µM.
# (§8) Experimental data were fitted to the Michaelis-Menten equation, basic kinetic parameters were determined using the program GraphPad Prism version 6.07 for Windows. The type of inhibition was estimated using a Lineweaver-Burk (double-reciprocal) plot.
# CYP2C19 = biological target: T2, CYP2C19 (Homo sapiens, UniProt P33261); experiment: CYP2C19 S-mephenytoin 4′-hydroxylation in human liver microsomes (HPLC); conditions: substrate S-mephenytoin, n = 2
# T2 construct: other CYP-mediated activities in human liver microsomes; from tissue; host or cells: human liver microsomal fraction
# Experimental: as §1, §2
# [4] = test system: CYP2B/3A (CYP3A4/2B6, BROD activity); experiment: CYP2B/3A (BROD activity, benzyloxyresorufin O-debenzylation) in human liver microsomes; conditions: probe benzyloxyresorufin (O-debenzylation), 0.5-5.0 µM; human liver microsomes, BROD activity
# Experimental: as §1, §3, §5, §6, §4, §7, §8
# [5] = human, liver microsomes, probe testosterone
# T1 sequence (P11509 whole entry): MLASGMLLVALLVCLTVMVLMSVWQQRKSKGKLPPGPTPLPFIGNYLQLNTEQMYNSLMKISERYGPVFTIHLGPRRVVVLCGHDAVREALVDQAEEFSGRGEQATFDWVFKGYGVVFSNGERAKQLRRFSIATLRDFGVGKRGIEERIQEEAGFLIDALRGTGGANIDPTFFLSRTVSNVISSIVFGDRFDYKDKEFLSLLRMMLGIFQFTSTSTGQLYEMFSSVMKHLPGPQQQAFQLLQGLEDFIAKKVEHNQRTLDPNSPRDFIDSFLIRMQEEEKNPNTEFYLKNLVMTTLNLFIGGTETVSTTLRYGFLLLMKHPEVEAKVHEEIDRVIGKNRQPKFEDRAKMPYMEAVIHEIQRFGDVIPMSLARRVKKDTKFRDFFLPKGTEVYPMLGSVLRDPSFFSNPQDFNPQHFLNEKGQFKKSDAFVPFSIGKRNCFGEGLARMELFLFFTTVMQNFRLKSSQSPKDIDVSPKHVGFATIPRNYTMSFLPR
# T2 sequence (P33261 whole entry): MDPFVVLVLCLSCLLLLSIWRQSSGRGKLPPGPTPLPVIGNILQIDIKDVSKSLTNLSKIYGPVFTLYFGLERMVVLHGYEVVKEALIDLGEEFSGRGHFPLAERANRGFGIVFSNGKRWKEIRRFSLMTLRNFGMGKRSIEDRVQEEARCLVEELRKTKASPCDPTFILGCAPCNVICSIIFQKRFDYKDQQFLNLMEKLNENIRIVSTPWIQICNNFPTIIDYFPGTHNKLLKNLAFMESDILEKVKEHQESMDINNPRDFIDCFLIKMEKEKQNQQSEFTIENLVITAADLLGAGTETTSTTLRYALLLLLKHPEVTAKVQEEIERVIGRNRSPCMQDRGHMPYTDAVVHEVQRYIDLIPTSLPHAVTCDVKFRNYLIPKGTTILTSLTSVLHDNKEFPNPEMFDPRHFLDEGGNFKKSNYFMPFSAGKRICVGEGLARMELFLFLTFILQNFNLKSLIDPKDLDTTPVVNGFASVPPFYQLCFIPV
SMILES,"IC50 (CYP3A4/5 [1]; human, liver microsomes, probe midazolam) [µM]",IC50 (CYP3A4/5 [1]) [µM],IC50 (CYP3A4/5 [2]; [5]) [µM],IC50 (CYP2A6) [µM],Ki [3] [µM],IC50 (CYP2C19) [µM],Ki [4] [µM],IC50 (CYP3A4/5 [2]) [µM]
"C=CC(C)(O)CC/C=C(/C)CCC=C(C)C (stereo not drawn) [CNER, cis-nerolidol]",66,66.1 ± 30.5,186 ± 125,–,–,–,–,–
"CC(C)=CCC/C(C)=C/CC/C(C)=C/CO [FAR, farnesol]",–,–,–,85.9 ± 22.9,–,–,–,–
"C=CC(C)(O)CC/C=C(\C)CCC=C(C)C (stereo not drawn) [TNER, trans-nerolidol]",–,–,51,–,0.55 ± 0.11,76.4 ± 52.1,2.41 ± 0.33,50.5 ± 13.5
